Patent US9115092B2, “Substituted quinazoline and pyrido-pyrimidine derivatives” (Asana Biosciences, LLC, priority 2010, dated 2015)

Tests used:
mTOR kinase = biological target: T1, mTOR kinase (Homo sapiens, UniProt P42345); assay: mTOR kinase TR-FRET assay; format: biochemical; conditions: read-out: mTO R
T1 construct: purchased Millipore, USA
Outline: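 TR-FRET read-out (340 nm excitation, 615/665 nm emission) of Thr389 phosphorylation of a ULight-labeled p70 S6K peptide (50 nM) by mTOR, 20 μM ATP, 60 min room temperature after 60 min compound preincubation. Buffer HEPES pH 7.5 with MnCl2, EGTA; IC50 by sigmoidal dose-response.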

[1] = tested on: pS6RP(S235/236), PC3 cells; assay: In-cell Western assay, pS6RP(S235/236) in PC3 cells; format: cell-based, human; conditions: Homo sapiens, PC-3, In-cell Western
Outline: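 Overnight-seeded PC3 cells were treated 2 h with serially diluted compound, then fixed and immunostained with phospho-specific primary antibodies and Eu-labelled secondary. Time-resolved Eu signal read at 615 nm (ex 340 nm), normalised by Hoechst 33258 staining (ex 355/em 460 nm); IC50 from sigmoidal dose-response fit.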

PC3 cells = assay: XTT assay for cell viability, PC3 cells; format: cell-based, human; conditions: Homo sapiens, PC-3, cell viability
Outline: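 PC3 cells seeded at 1000 cells/well, grown 24 h, then exposed to serial dilutions of compound for 96 h. Viability read by XTT dye at 37° C, absorbance 465 nm. EC50 from sigmoidal dose-response fit.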

[2] = biological target: T2, PI3Kα (wild-type), P110/P85α (Homo sapiens, UniProt P42336); assay: PI3 Kinase TR-FRET assay, PI3Kα (wild-type); format: biochemical
T2 construct: made in house; host or cells: SF9 insect cells
Outline: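 TR-FRET read-out of PIP3 formation via biotin-PIP3 displacement (665/615 nm ratio) gave IC50 curves. Enzyme: 5 ng wild-type P110/P85α from Sf9 cells, 60 min RT with compound and PIP2 (MgCl2 40 mM, DTT 5 mM), then 30 min RT kinase reaction at 10 μM ATP and 10 μM PIP2.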

T2 sequence (P42336 whole entry): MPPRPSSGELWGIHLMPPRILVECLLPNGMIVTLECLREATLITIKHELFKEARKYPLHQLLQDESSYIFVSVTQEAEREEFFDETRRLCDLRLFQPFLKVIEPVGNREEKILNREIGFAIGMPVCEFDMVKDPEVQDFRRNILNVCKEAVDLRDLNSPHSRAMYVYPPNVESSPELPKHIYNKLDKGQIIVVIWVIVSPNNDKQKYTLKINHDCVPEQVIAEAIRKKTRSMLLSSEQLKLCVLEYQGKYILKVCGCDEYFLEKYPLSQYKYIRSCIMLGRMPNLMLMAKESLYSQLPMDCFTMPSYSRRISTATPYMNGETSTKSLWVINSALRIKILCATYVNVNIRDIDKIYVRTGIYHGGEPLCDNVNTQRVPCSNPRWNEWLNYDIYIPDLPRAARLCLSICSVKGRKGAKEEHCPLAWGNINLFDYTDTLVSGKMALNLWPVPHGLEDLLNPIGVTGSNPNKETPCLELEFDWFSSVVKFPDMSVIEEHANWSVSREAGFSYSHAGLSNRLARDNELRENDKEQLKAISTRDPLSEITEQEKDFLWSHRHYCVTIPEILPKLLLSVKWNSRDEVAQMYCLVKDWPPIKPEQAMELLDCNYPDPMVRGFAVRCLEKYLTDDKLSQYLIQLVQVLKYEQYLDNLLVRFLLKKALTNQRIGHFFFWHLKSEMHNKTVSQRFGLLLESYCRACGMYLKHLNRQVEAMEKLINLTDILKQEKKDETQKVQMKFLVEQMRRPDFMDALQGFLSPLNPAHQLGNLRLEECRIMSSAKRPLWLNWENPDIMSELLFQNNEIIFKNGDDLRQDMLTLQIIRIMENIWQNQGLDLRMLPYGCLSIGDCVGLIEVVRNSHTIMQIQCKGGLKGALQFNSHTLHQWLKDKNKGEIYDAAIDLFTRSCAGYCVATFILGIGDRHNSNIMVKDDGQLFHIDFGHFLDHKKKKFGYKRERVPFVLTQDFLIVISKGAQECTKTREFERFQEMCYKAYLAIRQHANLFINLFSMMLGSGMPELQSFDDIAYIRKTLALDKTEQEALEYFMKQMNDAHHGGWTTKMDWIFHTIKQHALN
T2 sequence (P27986 whole entry partner): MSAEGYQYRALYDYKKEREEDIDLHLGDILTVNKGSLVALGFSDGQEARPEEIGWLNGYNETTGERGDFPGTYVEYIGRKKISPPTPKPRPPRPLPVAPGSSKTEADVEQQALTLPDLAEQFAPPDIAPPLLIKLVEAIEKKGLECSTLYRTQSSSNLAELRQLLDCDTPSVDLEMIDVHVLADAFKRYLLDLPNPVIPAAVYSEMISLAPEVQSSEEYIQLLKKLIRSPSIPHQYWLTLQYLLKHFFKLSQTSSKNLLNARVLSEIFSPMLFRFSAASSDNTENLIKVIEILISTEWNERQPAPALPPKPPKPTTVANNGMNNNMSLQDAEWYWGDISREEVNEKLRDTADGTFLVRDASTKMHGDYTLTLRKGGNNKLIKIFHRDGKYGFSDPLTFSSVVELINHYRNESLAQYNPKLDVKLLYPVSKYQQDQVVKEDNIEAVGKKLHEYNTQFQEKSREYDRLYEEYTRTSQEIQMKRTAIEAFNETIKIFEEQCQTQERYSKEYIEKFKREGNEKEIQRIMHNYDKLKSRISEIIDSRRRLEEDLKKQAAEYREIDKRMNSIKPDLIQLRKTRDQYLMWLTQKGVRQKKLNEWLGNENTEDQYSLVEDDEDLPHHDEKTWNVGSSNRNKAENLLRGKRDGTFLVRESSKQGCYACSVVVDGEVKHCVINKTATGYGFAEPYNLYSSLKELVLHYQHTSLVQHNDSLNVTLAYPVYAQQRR

SMILES	IC50 (mTOR kinase) [µM]	IC50 [1] [µM]	IC50 (PC3 cells) [µM]	IC50 [2] [µM]
CN(C)[C@@H]1CCN(C(=O)c2ccc(NC(=O)Nc3ccc(-c4nc(N5CCOCC5)c5ncc(-c6cnn(C)c6)cc5n4)cc3F)cc2)C1 [Example 205, (R)-1-(4-(3-(dimethylamino)pyrrolidine-1-carbonyl)phenyl)-3-(2-fluoro-4-(7-(1-methyl-1H-pyrazol-4-yl)-4-morpholino-pyrido[3,2-d]pyrimidin-2-yl)phenyl)urea]	< 0.05	0.201 to 10	0.201 to 10	< 0.05
CC(O)c1ccc(-c2ccc3c(N4CCOCC4)nc(-c4ccc(NC(=O)Nc5ccc(C(=O)N(C)C)cc5)cc4)nc3c2)o1 (stereo not drawn) [Example 206, 4-(3-(4-(7-(5-(1-hydroxyethyl)furan-2-yl)-4-morpholino-quinazolin-2-yl)phenyl)ureido)-N,N-dimethyl-benzamide]	< 0.05	0.201 to 10	0.201 to 10	< 0.05
CN1CCN(C(=O)c2ccc(NC(=O)Nc3ccc(-c4nc(N5CCOCC5)c5cc(F)c(-c6cccnc6)cc5n4)cc3F)cc2)CC1 [Example 211, 1-(2-fluoro-4-(6-fluoro-4-morpholino-7-(pyridin-3-yl)quinazolin-2-yl)phenyl)-3-(4-(4-methylpiperazine-1-carbonyl)phenyl)urea]	< 0.05	0.201 to 10	< 0.1	< 0.05
CC(O)c1ccc(-c2ccc3c(N4CCOCC4)nc(-c4ccc(NC(=O)Nc5ccc(C(=O)N(C)C)cc5)c(F)c4)nc3c2)o1 (stereo not drawn) [Example 214, 4-(3-(2-fluoro-4-(7-(5-(1-hydroxyethyl)furan-2-yl)-4-morpholino-quinazolin-2-yl)phenyl)ureido)-N,N-dimethyl-benzamide]	< 0.05	0.201 to 10	< 0.1	< 0.05
CNC(=O)c1ccc(NC(=O)Nc2ccc(-c3nc(N4CCOCC4)c4ccc(-c5cncnc5)cc4n3)cc2F)cc1 [Example 215, 4-(3-(2-fluoro-4-(4-morpholino-7-(pyrimidin-5-yl)quinazolin-2-yl)phenyl)ureido)-N-methyl-benzamide]	0.05 to 0.2	0.201 to 10	0.201 to 10	0.05 to 0.2
CC(O)c1ccc(-c2cnc3c(N4CCOCC4)nc(-c4ccc(NC(=O)Nc5ccc(C(=O)N(C)C)cc5)cc4)nc3c2)o1 (stereo not drawn) [Example 216, 4-(3-(4-(7-(5-(1-hydroxyethyl)furan-2-yl)-4-morpholino-pyrido[3,2-d]pyrimidin-2-yl)phenyl)ureido)-N,N-dimethyl-benzamide]	< 0.05	0.201 to 10	0.201 to 10	< 0.05
CN(C)CCNC(=O)c1ccc(NC(=O)Nc2ccc(-c3nc(N4CCOCC4)c4ccc(-c5cncnc5)cc4n3)cc2F)cc1 [Example 217, N-(2-(dimethylamino)ethyl)-4-(3-(2-fluoro-4-(4-morpholino-7-(pyrimidin-5-yl)quinazolin-2-yl)phenyl)ureido)-benzamide]	< 0.05	0.201 to 10	0.201 to 10	< 0.05
CN(C)C(=O)c1ccc(NC(=O)Nc2ccc(-c3nc(N4CCOCC4)c4ccc(-c5ccc(C(C)(C)O)o5)cc4n3)cc2)cc1 [Example 222, 4-(3-(4-(7-(5-(2-hydroxypropan-2-yl)furan-2-yl)-4-morpholino-quinazolin-2-yl)phenyl)ureido)-N,N-dimethyl-benzamide]	< 0.05	0.201 to 10	0.201 to 10	< 0.05
CN(C)C(=O)c1ccc(NC(=O)Nc2ccc(-c3nc(N4CCOCC4)c4ccc(-c5ccc(C#N)o5)cc4n3)cc2)cc1 [Example 223, 4-(3-(4-(7-(5-cyanofuran-2-yl)-4-morpholino-quinazolin-2-yl)phenyl)ureido)-N,N-dimethyl-benzamide]	< 0.05	0.201 to 10	0.201 to 10	< 0.05
CC(=O)c1ccc(-c2ccc3c(N4CCOCC4)nc(-c4ccc(NC(=O)Nc5ccc(C(=O)N(C)C)cc5)cc4)nc3c2)o1 [Example 224, 4-(3-(4-(7-(5-acetylfuran-2-yl)-4-morpholino-quinazolin-2-yl)phenyl)ureido)-N,N-dimethyl-benzamide]	< 0.05	0.201 to 10	0.201 to 10	< 0.05
CN(C)C(=O)c1ccc(NC(=O)Nc2ccc(-c3nc(N4CCOCC4)c4ccc(-c5cncnc5)cc4n3)c(F)c2)cc1 [Example 237, 4-(3-(3-fluoro-4-(4-morpholino-7-(pyrimidin-5-yl)quinazolin-2-yl)phenyl)ureido)-N,N-dimethyl-benzamide]	< 0.05	0.201 to 10	0.201 to 10	< 0.05
CN(C)C(=O)c1ccc(NC(=O)Nc2ccc(-c3nc(N4CCOCC4)c4ncc(-c5cnn(C)c5)cc4n3)c(F)c2)cc1 [Example 238, 4-(3-(3-fluoro-4-(7-(1-methyl-1H-pyrazol-4-yl)-4-morpholino-pyrido[3,2-d]pyrimidin-2-yl)phenyl)ureido)-N,N-dimethyl-benzamide]	< 0.05	0.201 to 10	0.201 to 10	< 0.05
CN(C)C(=O)c1ccc(NC(=O)Nc2ccc(-c3nc(N4CCOCC4)c4ccc(-c5cccnc5F)cc4n3)c(F)c2)cc1 [Example 241, 4-(3-(3-fluoro-4-(7-(2-fluoropyridin-3-yl)-4-morpholino-quinazolin-2-yl)phenyl)ureido)-N,N-dimethyl-benzamide]	0.05 to 0.2	0.201 to 10	0.201 to 10	< 0.05
COc1ncc(-c2ccc3c(N4CCOCC4)nc(-c4ccc(NC(=O)Nc5ccc(C(=O)N(C)C)cc5)cc4F)nc3c2)cn1 [Example 242, 4-(3-(3-fluoro-4-(7-(2-methoxypyrimidin-5-yl)-4-morpholino-quinazolin-2-yl)phenyl)ureido)-N,N-dimethyl-benzamide]	< 0.05	0.201 to 10	0.201 to 10	< 0.05
CN(C)C(=O)c1ccc(NC(=O)Nc2ccc(-c3nc(N4CCOCC4)c4ccc(-c5cccnc5)cc4n3)c(F)c2)cc1 [Example 243, 4-(3-(3-fluoro-4-(4-morpholino-7-(pyridin-3-yl)quinazolin-2-yl)phenyl)ureido)-N,N-dimethyl-benzamide]	< 0.05	0.201 to 10	0.201 to 10	< 0.05
CN(C)C(=O)c1ccc(NC(=O)Nc2ccc(-c3nc(N4CCOCC4)c4ncc(-c5cccnc5F)cc4n3)c(F)c2)cc1 [Example 244, 4-(3-(3-fluoro-4-(7-(2-fluoropyridin-3-yl)-4-morpholino-pyrido[3,2-d]pyrimidin-2-yl)phenyl)ureido)-N,N-dimethyl-benzamide]	< 0.05	0.201 to 10	0.201 to 10	< 0.05
Cc1noc(C)c1-c1ccc2c(N3CCOCC3)nc(-c3ccc(NC(=O)Nc4ccc(C(=O)N(C)C)c(F)c4)cc3)nc2c1 [Example 246, 4-(3-(4-(7-(3,5-dimethylisoxazol-4-yl)-4-morpholino-quinazolin-2-yl)phenyl)ureido)-2-fluoro-N,N-dimethyl-benzamide]	< 0.05	0.201 to 10	0.201 to 10	0.05 to 0.2
CN(C)C(=O)c1ccc(NC(=O)Nc2ccc(-c3nc(N4CCOCC4)c4ccc(-c5ccco5)cc4n3)c(F)c2)cc1 [Example 247, 4-(3-(3-fluoro-4-(7-(furan-2-yl)-4-morpholino-quinazolin-2-yl)phenyl)ureido)-N,N-dimethyl-benzamide]	0.05 to 0.2	0.201 to 10	0.201 to 10	0.05 to 0.2
CN(C)C(=O)c1ccc(NC(=O)Nc2ccc(-c3nc(N4CCOCC4)c4ccc(-c5cccnc5NCCO)cc4n3)cc2)cc1 [Example 283, 4-(3-(4-(7-(2-((2-hydroxyethyl)amino)pyridin-3-yl)-4-morpholine-quinazolin-2-yl)phenyl)ureido)-N,N-dimethyl-benzamide]	0.05 to 0.2	0.201 to 10	0.201 to 10	0.201 to 10
CN(C)C(=O)c1ccc(NC(=O)Nc2ccc(-c3nc(N4CCOCC4)c4ccc(CO)cc4n3)cc2)cc1 [Example 285, 4-(3-(4-(7-(hydroxymethyl)-4-morpholino-quinazolin-2-yl)phenyl)ureido)-N,N-dimethyl-benzamide]	< 0.05	0.201 to 10	< 0.1	< 0.05
CN(C)C1CCN(C(=O)c2ccc(NC(=O)Nc3ccc(-c4nc(N5CCOCC5)c5ccc(C(C)(C)O)cc5n4)cc3)cc2)CC1 [Example 286, 1-(4-(4-(dimethylamino)piperidine-1-carbonyl)phenyl)-3-(4-(7-(2-hydroxypropan-2-yl)-4-morpholino-quinazolin-2-yl)phenyl)urea]	< 0.05	0.201 to 10	0.201 to 10	< 0.05
